The source of these data is PMC6469168, “Localization of ^99mTc-GRP Analogs in GRPR-Expressing Tumors: Effects of Peptide Length and Neprilysin Inhibition on Biological Responses” (Pharmaceuticals, 2019).

The test system of one assay is PC-3 cells. Kind of assay: Internalization assay in PC-3 cells. The format is cell-based, human. The following applies: 37 °C, corrected for nonspecific (1 µM [Tyr^4]BBN), average ± sd, n = 3. As for the experimental part: In both cases the bulk of cell-associated radioactivity was found in the cells with ^99mTc-N4-GRP(14–27) internalizing much faster in PC-3 cells compared to ^99mTc-N4-GRP(18–27) at all time intervals (Figure 3b).
The internalization rates of ^99mTc-N4-GRP(14–27) and ^99mTc-N4-GRP(18–27) were compared in PC-3 cells. Briefly, PC-3 cells were seeded in six-well plates (~1 × 10^6 cells per well) 24 h before the experiment. Approximately 50,000 cpm of either ^99mTc-N4-GRP(14–27) or ^99mTc-N4-GRP(18–27) (corresponding to 250 fmol total peptide in 150 μL of 0.5% BSA/PBS) was added alone (total) or in the presence of 1 μM [Tyr^4]BBN (nonspecific). Cells were incubated at 37 °C for 15, 30, 60, and 120 min and incubation was interrupted each time by placing the plates on ice, removing the supernatants and rapid rinsing with ice-cold 0.5% BSA/PBS. Cells were then treated 2 × 5 min with acid wash buffer (2 × 0.6 mL, 50 mM glycine buffer pH 2.8, 0.1 M NaCl) at room temperature and supernatants were collected (membrane-bound fraction). After rinsing with 1 mL chilled 0.5% BSA/PBS, cells were lysed by treatment with 1 N NaOH (2 × 0.6 mL) and lysates were collected (internalized fraction). Sample radioactivity was measured in the γ-counter and percent internalized radioactivity was determined vs. total added activity. Results represent the average values ± sd of three experiments performed in triplicate.

For assay [1], the target named is T1, BB3R in human lung (bronchial) carcinoids (Homo sapiens, UniProt P32247).
T1 construct: from tissue; host or cells: human bronchial carcinoid cryostat sections
T1 sequence (P32247 1-399): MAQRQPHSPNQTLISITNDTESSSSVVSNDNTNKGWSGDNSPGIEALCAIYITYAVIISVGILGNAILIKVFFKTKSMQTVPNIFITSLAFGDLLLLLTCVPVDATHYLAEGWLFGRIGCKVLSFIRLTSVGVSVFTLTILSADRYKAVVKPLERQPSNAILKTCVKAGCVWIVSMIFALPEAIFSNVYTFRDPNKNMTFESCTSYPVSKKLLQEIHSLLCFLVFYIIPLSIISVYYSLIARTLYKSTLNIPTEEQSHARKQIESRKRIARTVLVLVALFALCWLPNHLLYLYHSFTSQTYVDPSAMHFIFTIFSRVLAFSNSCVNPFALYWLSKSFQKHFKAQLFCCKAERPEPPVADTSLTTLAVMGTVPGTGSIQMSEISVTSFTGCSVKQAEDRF
The following applies: receptor autoradiography, human lung carcinoid sections; read-out: IC50s in nM, BB3R; cited from earlier work. From the text:
Receptor autoradiography was applied in cryostat sections of well characterized human cancers, preferentially expressing one of the subtypes.

Assay [2] has as its target T2, GRPR expressed in human prostate cancer (Homo sapiens, UniProt P30550).
T2 construct: from tissue; host or cells: human prostate carcinoma cryostat sections
The following applies: receptor autoradiography, human prostate cancer sections; mean, n = 2; read-out: IC50s in nM, GRPR; cited from earlier work. From the text:
Table 1 Affinities for the three human bombesin receptor subtypes. | column: IC50s in nM / GRPR ^1 || The selective affinities of N4-GRP(14–27) for each of the three bombesin receptor subtypes found in mammals were studied during in vitro competition binding assays against the universal radioligand ^125I-[DTyr^6,βAla^11,Phe^13,Nle^14]BBN(6–14). Receptor autoradiography was applied in cryostat sections of well characterized human cancers, preferentially expressing one of the subtypes.

For assay [3], the target named is T3, GRPR-sites on PC-3 cell membranes (Homo sapiens, UniProt P30550).
T3 construct: PC-3 cells endogenously expressing the human GRPR; host or cells: PC-3 cell-membrane homogenates
T3 sequence (P30550 whole entry): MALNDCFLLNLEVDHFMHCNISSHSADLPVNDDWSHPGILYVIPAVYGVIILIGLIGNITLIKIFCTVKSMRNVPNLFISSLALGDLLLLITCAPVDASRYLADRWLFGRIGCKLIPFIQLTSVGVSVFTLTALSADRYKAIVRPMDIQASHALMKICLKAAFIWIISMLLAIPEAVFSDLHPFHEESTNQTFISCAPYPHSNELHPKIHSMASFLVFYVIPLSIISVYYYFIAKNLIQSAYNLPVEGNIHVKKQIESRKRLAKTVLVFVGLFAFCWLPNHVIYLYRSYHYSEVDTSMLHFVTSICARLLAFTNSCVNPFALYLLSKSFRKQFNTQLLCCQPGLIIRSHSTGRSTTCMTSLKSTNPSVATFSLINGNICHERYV
Kind of assay: Competition binding against [^125I-Tyr^4]BBN in PC-3 cell membranes. The following applies: 1 h at 22 °C, 50 pM radioligand, triplicates per concentration, read-out: IC50, [^125I-Tyr^4]BBN displacement from GRPR-sites. The method, then: Moreover, coupling of the positively charged acyclic tetraamine unit in the N-terminus of parent GRP(14/18–27) references improved the affinity of resulting analogs to the GRPR, as previously reported for similarly modified peptide analogs.
(b) GRPR-specific internalization of ^99mTc-N4-GRP(14–27) (red solid line) and ^99mTc-N4-GRP(18–27) (blue solid line) in PC-3 cells during incubation at 37 °C at 15, 30, 60, and 120 min. Results represent average of cell internalized activity ± sd, n = 3; data is corrected for nonspecific internalization in the presence of 1 µM [Tyr^4]BBN.
Competition binding experiments against [^125I-Tyr^4] […] For the assay, triplicates per concentration point (concentration range: 10^−13–10^−6 M) of each test peptide were incubated together with the radioligand (~40,000 cpm per assay tube at a 50 pM concentration) in PC-3 cell-membrane homogenates in a total volume of 300 μL binding buffer (BB, 50 mM HEPES pH 7.4, 1% BSA, 5.5 mM MgCl2, 35 μM bacitracin) for 1 h at 22 °C in an Incubator-Orbital Shaker (MPM Instr. SrI, Bernareggio, Italy). Binding was interrupted by ice-cold washing buffer (WB, 10 mM HEPES pH 7.4, 150 mM NaCl) and rapid filtration (Whatman GF/B filters presoaked in BB) on a Brandel Cell Harvester (Adi Hassel Ing. Büro, Munich, Germany). Filters were washed with ice-cold WB and counted in an automatic well-type gamma counter (NaI(Tl) 3′-crystal, Cobra Packard Auto-Gamma 5000 series instrument). The IC50 values were calculated using nonlinear regression according to a one-site model applying the PRISM 2 program (Graph Pad Software, San Diego, CA, USA).

Assay [4] deals with T1, BB3R in human lung (bronchial) carcinoids. Kind of assay: Receptor autoradiography competition binding vs ^125I-[DTyr^6,βAla^11,Phe^13,Nle^14]BBN(6–14) in human tumor sections. The following applies: human lung (bronchial) carcinoid sections, same universal radioligand, mean ± SEM, n in parentheses, read-out: IC50s in nM, BB3R.
Text: IC50 values are given in nM ± SEM.
Another assay relates to GRPR. The following applies: DOTA-derivatized analogs; read-out: IC50, GRPR binding affinity; cited from earlier work. From the text: It is interesting to note that the presence of the positively charged N4^+x-moiety at positions 13 and 17 of the native GRP chain occupy the two basic amino acids Lys^13 and Arg^17.
Assay [5] addresses T4, NMBR in human ileal carcinoids (Homo sapiens, UniProt P28336).
T4 construct: from tissue; host or cells: human ileal carcinoid cryostat sections
The following applies: receptor autoradiography, human ileal carcinoid sections; mean, n = 2; read-out: IC50s in nM, NMBR; cited from earlier work. From the text:
Table 1 Affinities for the three human bombesin receptor subtypes. | column: IC50s in nM / NMBR ^2 || The selective affinities of N4-GRP(14–27) for each of the three bombesin receptor subtypes found in mammals were studied during in vitro competition binding assays against the universal radioligand ^125I-[DTyr^6,βAla^11,Phe^13,Nle^14]BBN(6–14). Receptor autoradiography was applied in cryostat sections of well characterized human cancers, preferentially expressing one of the subtypes.

Like-named read-outs stand apart in the source and are kept apart here. Where no end group is shown, it is not given here. The star is where a group is joined. DOTA = O=C(O)CN1CCN(CC(=O)O)CCN(CC(=O)*)CCN(CC(=O)O)CC1; N4 = tetraamine chelator for 99mTc Some results are limits rather than exact numbers.

T2 sequence (P30550 whole entry): as above
T4 sequence (P28336 whole entry): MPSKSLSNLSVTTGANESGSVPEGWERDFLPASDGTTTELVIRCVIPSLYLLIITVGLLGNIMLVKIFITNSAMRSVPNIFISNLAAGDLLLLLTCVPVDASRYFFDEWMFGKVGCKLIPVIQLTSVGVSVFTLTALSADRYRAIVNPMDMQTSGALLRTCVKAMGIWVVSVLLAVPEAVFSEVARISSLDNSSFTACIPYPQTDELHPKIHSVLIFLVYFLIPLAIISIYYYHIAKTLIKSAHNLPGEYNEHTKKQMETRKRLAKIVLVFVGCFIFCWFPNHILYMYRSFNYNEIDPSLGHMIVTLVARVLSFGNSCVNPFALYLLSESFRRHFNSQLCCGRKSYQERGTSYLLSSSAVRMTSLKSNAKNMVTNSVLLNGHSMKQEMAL

For the molecule “^99mTc-N4-GRP(18–27): ^99mTc-labeled N4-GRP(18–27) radioligand (N4-GNHWAVGHLM-NH2; ends and bridges not checked; also: 99mTc complex at N4; UniProt P07492 41-50, looked up, fragment)”, the “specifically internalized, % of total added activity” value in the assay on PC-3 cells (1 h) was 5.0 ± 0.3%; in the assay with PC-3 cells (2 h), 6.9 ± 1.5%. Regarding “N4-[Pro^1,Tyr^4]BBN (PQRYGNQWAVGHLM) [Demobesin 3, tetraamine derivatized BBN-like analog]”, the results for the IC50 in assay [1] and in assay [2] were over 100 nM and 0.5 nM, respectively. “^99mTc-N4-GRP(14–27): ^99mTc-labeled N4-GRP(14–27) radioligand (N4-MYPRGNHWAVGHLM-NH2; ends and bridges not checked; also: 99mTc complex at N4; UniProt P07492 37-50, looked up, fragment)”: the results for the “specifically internalized, % of total added activity” value with PC-3 cells (1 h) and in the assay with PC-3 cells (2 h) were 12.7 ± 0.7% and 19.5 ± 1.4%, respectively. With `CSCC[C@H](NC(=O)[C@H](CC(C)C)NC(=O)[C@H](Cc1cnc[nH]1)NC(=O)CNC(=O)[C@@H](NC(=O)[C@H](C)NC(=O)[C@H](Cc1c[nH]c2ccccc12)NC(=O)[C@H](Cc1cnc[nH]1)NC(=O)[C@H](CC(N)=O)NC(=O)CN)C(C)C)C(N)=O` [GRP(18–27), H-Gly-Asn-His-Trp-Ala- Val-Gly-His-Leu-Met-NH2], the IC50 in assay [3] amounted to 1.66 ± 0.2 nM. As to `CSCC[C@H](NC(=O)[C@H](CC(C)C)NC(=O)[C@H](Cc1c[nH]cn1)NC(=O)CNC(=O)[C@@H](NC(=O)[C@H](C)NC(=O)[C@H](Cc1c[nH]c2ccccc12)NC(=O)[C@H](Cc1c[nH]cn1)NC(=O)[C@H](CC(N)=O)NC(=O)CNC(=O)[C@H](CCCNC(=N)N)NC(=O)[C@@H]1CCCN1C(=O)[C@H](Cc1ccc(O)cc1)NC(=O)[C@H](CCSC)NC(=O)C(CNCCN)CNCCN)C(C)C)C(N)=O` [N4-GRP(14–27)], the IC50 was 0.32 ± 0.03 nM in assay [3] and over 1000 nM in assay [4]. “DOTA-GRP(14–27): GRP(14–27) coupled to DOTA, previously reported ({DOTA}-MYPRGNHWAVGHLM-NH2; ends and bridges not checked; UniProt P07492 37-50, looked up, fragment)”: in the assay with GRPR, the IC50 is 6.6 ± 0.9 nM. As for “N4-[Pro^1,Tyr^4]BBN (PQRYGNQWAVGHLM; not fully specified (N-terminus); ends and bridges not checked) [Demobesin 3, tetraamine derivatized BBN-like analog]”, the IC50 in assay [5] was 1.6 nM.

In the case of `CSCC[C@H](NC(=O)[C@H](CC(C)C)NC(=O)[C@H](Cc1c[nH]cn1)NC(=O)CNC(=O)[C@@H](NC(=O)[C@H](C)NC(=O)[C@H](Cc1c[nH]c2ccccc12)NC(=O)[C@H](Cc1c[nH]cn1)NC(=O)[C@H](CC(N)=O)NC(=O)CNC(=O)[C@H](CCCNC(=N)N)NC(=O)[C@@H]1CCCN1C(=O)[C@H](Cc1ccc(O)cc1)NC(=O)[C@@H](N)CCSC)C(C)C)C(N)=O` [GRP(14–27)], the IC50 in assay [3] was 0.45 ± 0.02 nM. Consider `CSCC[C@H](NC(=O)[C@H](CC(C)C)NC(=O)[C@H](Cc1c[nH]cn1)NC(=O)CNC(=O)[C@@H](NC(=O)[C@H](C)NC(=O)[C@H](Cc1c[nH]c2ccccc12)NC(=O)[C@H](Cc1c[nH]cn1)NC(=O)[C@H](CC(N)=O)NC(=O)CNC(=O)C(CNCCN)CNCCN)C(C)C)C(N)=O` [N4-GRP(18–27)], for which, in assay [3], the IC50 was 0.63 ± 0.06 nM. Regarding “DOTA-GRP(18–27): GRP(18–27) coupled to DOTA, previously reported”, the IC50 with GRPR was 112 ± 16 nM.
